Results: US12296006B2, “Anti-LY6H antibodies and antibody drug conjugates” (Bluefin BioMedicine, Inc., priority 2017, dated 2025)
Read-outs that look alike come from different tables or passages of the source.

System: DMS79 cells
Test: In vitro growth inhibition and isobologram analysis (CellTiter Glo): DMS79
Type: cell-based, human
Details: 5 days, read-out: IC50 (growth), DMS79, alone
Experimental: SCLC cells were seeded onto 96 well plates at 3000-5,000 cells/well on the day of treatment. To distinguish synergy from additivity of the combination of LY6H-PBD with Olaparib (selleckchem, Cat #S1060), etoposide (Cell Signaling Technology, Cat #2200S) or cisplatin (Sigma, Cat #P4394), for each combination, a specific isobologram was constructed. […] Concentrations ranging from 0.0001-10 ug/ml were used for 12G7-PBD, from 0.0001 to 100 uM for olaparib, cisplatin, and etoposide. Cell viability was measured 5 days later by CellTiter Glo® Luminescent Cell viability Assay™ (Promega, Madison, WI) according to manufacturer's instructions. Each IC50 was graphically derived from the growth curve graphed by Prism™ showing percent survival vs log drug concentrations.
The 50% growth-inhibitory activity of the drug combinations was measured after 5 days of treatment. The line of additivity for the isobologram was constructed by interpolating the two points corresponding to the IC50 of the two drugs alone. Graphically, synergy, additivity, and antagonism are indicated by a point plotted below, on, or above the line of additivity, respectively.

O=C(c1cc(Cc2n[nH]c(=O)c3ccccc23)ccc1F)N1CCN(C(=O)C2CC2)CC1 [olaparib]
IC50 (Homo sapiens, DMS-79, 120 h): 4070 nM

COc1cc([C@@H]2c3cc4c(cc3[C@@H](O[C@@H]3O[C@@H]5CO[C@@H](C)O[C@H]5[C@H](O)[C@H]3O)[C@H]3COC(=O)[C@H]23)OCO4)cc(OC)c1O [etoposide]
IC50 (Homo sapiens, DMS-79, 120 h): 290 nM

N.N.[Cl][Pt][Cl] [cisplatin]
IC50: 310 nM
